The values that follow come from patent US20150132388A1 (Druggability Technologies Holdings Limited, priority 2013, published 2015).

One data set in a line: PAMPA permeability. Type of data set: in vitro ADME. Conditions: both the fed and fasted state simulating conditions. As to the method: Reference source not found. PAMPA permeability measurements were performed as described by M. Kansi et al. (Journal of medicinal chemistry, 41, (1998) pp 1007) with modifications based on S. Bendels et al (Pharmaceutical research, 23 (2006) pp 2525). Permeability was measured in a 96-well plate assay across an artificial membrane composed of dodecane with 20% soy lecithin supported by a PVDF membrane (Millipore, USA). The receiver compartment was phosphate buffered saline (pH 7.0) supplemented with 1% sodium dodecyl sulfate. The assay was performed at room temperature; incubation time was 1-24 hours. The concentration in the receiver compartment was determined by UV-VIS spectrophotometry (Thermo Scientific Genesys S10).
The ratio of the selected complexation agents and pharmaceutically acceptable excipients (Lutrol F127 and Sodium acetate) was optimized.

A short description of data set [1]: Comparative solubility test (apparent solubility, UV-VIS). Conditions: distillated water, room temperature, 100 nm syringe filter. Type of data set: physicochemical. As for the experimental part:
The samples were dispersed in distillated water and the resulting dispersions were filtered by 100 nm disposable syringe filter. The active content in the filtrate was measured by UV-Vis spectrophotometry and the solubility was calculated.

For data set [2] the following is noted: cited from earlier work.
Data set [3] relates to tamoxifen-resistant, as well as estrogen-sensitive human breast cancer (MCF-7) cell lines. The note with it: tamoxifen-resistant and estrogen-sensitive MCF-7 cell lines; cited from earlier work.
The test system of data set [4] is xenografts of human breast cancer MCF-7 cells. Conditions: cited from earlier work.
The conditions of data set [5]: immature or ovariectomized mice and rats; cited from earlier work.
The conditions of data set [6]: immature rats and ovariectomized monkeys; cited from earlier work.
Where [7] appears, read: intramuscular injection of 250 mg.

Consider “7-alpha-[9-(4,4,5,5,5-penta fluoropentylsulphinyl)nonyl]estra-1,3,5-(10)-triene-3,17 beta-diol [Fulvestrant]”, for which the PAMPA permeability entry in “PAMPA permeability” was “not detectable”. The “Solubility (apparent solubility)” value in data set [1] was less than 30 µg/mL. Moreover, the “Time to maximum plasma concentrations” value in data set [2] (250 mg intramuscularly) is recorded as “about 7 days”. In data set [2] (in vivo), the “Excretion via the feces” value is “approximately 90%” and the Renal elimination entry is “less than 1%”. For the same substance, in data set [2] (setting [7]), the Apparent half-life entry is recorded as “about 40 days” and the “Clearance (Mean±SD)” value is 690 ± 226 mL/min. Besides, the Bioavailability in data set [2] (intramuscular, between study comparisons) was 90-100%. Further, in data set [2] (once a month administration), the Accumulation is 2-3 fold and the “Time to steady state” value is reported as “about 6 months”. In addition, the Terminal half-life result in data set [2] (single dose studies, intramuscular) is “about 50 days”. The “Inhibition of cell growth” value in data set [3] is listed as “reversible inhibitor of the growth”. Moreover, in data set [4] (MCF-7 cells in nude mice), the “Establishment of tumors from xenografts” value is “delayed the establishment of tumors”. Besides, the “Growth of established xenografts” value in data set [4] (established MCF-7 xenografts and tamoxifen-resistant breast tumor xenografts) is “inhibited the growth”. Besides, the “Agonist-type effects in uterotropic assays” value in data set [5] was “no agonist-type effects”. Moreover, the “Effect on the uterotrophic action of estradiol” value in data set [6] is reported as “blocked the uterotrophic action of estradiol”.
